Measured values as given in ChEMBL document CHEMBL4680352, “Rational design and synthesis of 6-aryl-6H-benzo[c]chromenes as non-steroidal progesterone receptor antagonists for use against cancers” (Bioorg Med Chem, 2021).
The source made the active and inactive calls. The rule behind the calls is not given here.

Columns and labels:
PC-3 = assay: Antiproliferative activity against human PC-3 cells assessed as inhibition of cell viability after 72 hrs by CCK-8 assay; assay type: functional, cell-based; settings: PC-3, 72 h
MCF-10A = assay: Cytotoxicity against human MCF-10A cells assessed as inhibition of cell viability after 72 hrs by CCK-8 assay; assay type: cell-based
MDA-MB-231 = assay: Antiproliferative activity against human MDA-MB-231 cells assessed as inhibition of cell viability after 72 hrs by CCK-8 assay; assay type: functional, cell-based; settings: MDA-MB-231, 72 h
MCF7 [1] = assay: Antiproliferative activity against human MCF7 cells assessed as inhibition of cell viability after 72 hrs by CCK-8 assay; assay type: functional, cell-based; settings: MCF7, 72 h
MCF7 [2] = assay: Induction of cell cycle arrest in human MCF7 cells assessed as decrease in cyclin D1 protein expression expression at 3 to 12 uM after 48 hrs by Western blot analysis; assay type: functional, cell-based; settings: dose 3-12 µM
A549 = assay: Antiproliferative activity against human A549 cells assessed as inhibition of cell viability after 72 hrs by CCK-8 assay; assay type: functional, cell-based; settings: A549, 72 h
MCF7 [3] = assay: Induction of apoptosis in human MCF7 cells assessed as increase in p53 phosphorylation at Ser15 residue at 3 to 12 uM measured after 48 hrs by Western blot analysis; assay type: functional, cell-based; settings: dose 3-12 µM
MCF7 [4] = assay: Antiproliferative activity against human MCF7 cells assessed as cell growth inhibition at 6 uM by CCK-8 assay; assay type: functional, cell-based; settings: time 24-72 hrs, TDE = time-dependent effect
MCF7 [5] = assay: Induction of cell cycle arrest in human MCF7 cells assessed as decrease in CDK4 protein expression at 3 to 12 uM after 48 hrs by Western blot analysis; assay type: functional, cell-based; settings: dose 3-12 µM
BGC-823 = assay: Antiproliferative activity against human BGC-823 cells assessed as inhibition of cell viability after 72 hrs by CCK-8 assay; assay type: functional, cell-based; settings: BGC-823, 72 h
MCF7 [6] = assay: Induction of apoptosis in human MCF7 cells assessed as increase in ratio of Bax to Bcl2 level measured at 3 to 12 uM after 48 hrs by Western blot analysis; assay type: functional, cell-based; settings: dose 3-12 µM
MCF7 [7] = assay: Induction of apoptosis in human MCF7 cells assessed as increase in cleaved caspase-3 level at 3 to 12 uM measured after 24 to 72 hrs by flow cytometry; assay type: functional, cell-based; settings: dose 3-12 µM, time 24-72 hrs
MCF7 [8] = assay: Induction of apoptosis in human MCF7 cells assessed as increase in p53 expression measured at 3 to 12 uM after 48 hrs by Western blot analysis; assay type: functional, cell-based; settings: dose 3-12 µM
MCF7 [9] = assay: Induction of apoptosis in human MCF7 cells at 6 uM measured after 24 hrs by Annexin V-FITC and propidium iodide staining based flow cytometry (Rvb =3.54%); assay type: functional
MCF7 [10] = assay: Induction of apoptosis in human MCF7 cells assessed as increase in Bax expression at 3 to 12 uM measured after 48 hrs by Western blot analysis; assay type: functional, cell-based; settings: dose 3-12 µM
MCF7 [11] = assay: Decrease in Bcl-2 expression in human MCF7 cells at 3 to 12 uM measured after 48 hrs by Western blot analysis; assay type: functional, cell-based; settings: dose 3-12 µM
MCF7 [12] = assay: Induction of apoptosis in human MCF7 cells at 3 uM measured after 48 hrs by Annexin V-FITC and propidium iodide staining based flow cytometry (reference value: 4.88%); assay type: functional
[13] = molecular target: T1, Progesterone receptor (Homo sapiens) (UniProt P06401); assay: Antagonist activity at PR in human T47D cells assessed as inhibition of progesterone-induced alkaline phosphatase activity by alkaline phosphatase assay; assay type: cell-based; settings: filed as antagonist
T1 sequence (whole entry): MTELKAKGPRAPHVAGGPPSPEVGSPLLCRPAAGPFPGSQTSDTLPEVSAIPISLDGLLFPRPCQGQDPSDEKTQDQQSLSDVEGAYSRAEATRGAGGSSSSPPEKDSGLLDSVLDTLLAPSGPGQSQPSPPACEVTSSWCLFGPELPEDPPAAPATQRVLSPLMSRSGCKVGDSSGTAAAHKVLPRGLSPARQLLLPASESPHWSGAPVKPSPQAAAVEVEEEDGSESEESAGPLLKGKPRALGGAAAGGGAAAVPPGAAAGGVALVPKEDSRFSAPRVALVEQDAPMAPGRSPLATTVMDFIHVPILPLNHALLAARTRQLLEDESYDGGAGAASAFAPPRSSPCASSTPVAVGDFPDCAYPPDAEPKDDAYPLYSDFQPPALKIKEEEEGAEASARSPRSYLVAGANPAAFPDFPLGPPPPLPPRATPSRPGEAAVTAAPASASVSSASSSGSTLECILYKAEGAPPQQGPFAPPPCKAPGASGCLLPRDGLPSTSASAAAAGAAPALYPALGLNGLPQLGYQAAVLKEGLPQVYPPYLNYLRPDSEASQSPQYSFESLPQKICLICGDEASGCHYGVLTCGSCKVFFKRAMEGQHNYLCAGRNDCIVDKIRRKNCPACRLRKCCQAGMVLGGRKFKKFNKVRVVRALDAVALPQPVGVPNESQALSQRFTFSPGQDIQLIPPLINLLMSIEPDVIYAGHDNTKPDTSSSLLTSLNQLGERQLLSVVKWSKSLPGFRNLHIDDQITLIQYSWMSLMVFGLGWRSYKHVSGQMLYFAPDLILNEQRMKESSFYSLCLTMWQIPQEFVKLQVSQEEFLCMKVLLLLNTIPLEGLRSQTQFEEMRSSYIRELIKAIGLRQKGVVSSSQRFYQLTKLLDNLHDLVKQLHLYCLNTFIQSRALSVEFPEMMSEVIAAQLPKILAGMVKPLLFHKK

[14] = Selectivity index, ratio of IC50 for human MCF-10A cells to IC50 for human MCF-7 cells
MCF7 [15] = assay: Induction of apoptosis in human MCF7 cells at 6 uM measured after 48 hrs by Annexin V-FITC and propidium iodide staining based flow cytometry (Rvb =4.88%); assay type: functional
MCF7 [16] = assay: Induction of apoptosis in human MCF7 cells at 6 uM measured after 72 hrs by Annexin V-FITC and propidium iodide staining based flow cytometry (Rvb =4.62%); assay type: functional
MCF7 [17] = assay: Induction of cell cycle arrest in human MCF7 cells assessed as increase in p21 protein expression after 48 hrs by Western blot analysis; assay type: functional, cell-based; settings: dose 3-12 µM
MCF7 [18] = assay: Induction of apoptosis in human MCF7 cells at 12 uM measured after 48 hrs by Annexin V-FITC and propidium iodide staining based flow cytometry (Rvb =4.88%); assay type: functional

Question: For `COc1ccccc1C1Oc2ccccc2-c2cc(OCc3ccccc3)c(OCc3ccccc3)cc21` (stereo unspecified), which IC50 (PC-3) is on record?
Answer: 7.5 µM

Question: What about the IC50 (MCF-10A) of the same compound?
Answer: 51.3 µM

Question: And the IC50 (MDA-MB-231)?
Answer: 9.15 µM

Question: And the IC50 (MCF7 [1])?
Answer: 5.71 µM

Question: And the Activity (MCF7 [2])?
Answer: Active

Question: And the IC50 (A549)?
Answer: 10 µM

Question: What about the Activity (MCF7 [3]) of the same compound?
Answer: Active

Question: What about the Activity (MCF7 [4]) of the same compound?
Answer: Tde

Question: What about the Activity (MCF7 [5]) of the same compound?
Answer: Active

Question: What about the IC50 (BGC-823) of the same compound?
Answer: 7.82 µM

Question: And the Activity (MCF7 [6])?
Answer: Active

Question: And the Activity (MCF7 [7])?
Answer: Active

Question: And the Activity (MCF7 [8])?
Answer: Active

Question: What about the Activity (MCF7 [9]) of the same compound?
Answer: 13.95%

Question: What about the Activity (MCF7 [10]) of the same compound?
Answer: Active

Question: What about the inhibition (MCF7 [11]) of the same compound?
Answer: Active

Question: And the Activity (MCF7 [12])?
Answer: 11.71%

Question: What about the inhibition [13] of the same compound?
Answer: Active

Question: What about the “Ratio IC50” value [14] of the same compound?
Answer: 8.98

Question: And the Activity (MCF7 [15])?
Answer: 22.97%

Question: What about the Activity (MCF7 [16]) of the same compound?
Answer: 36.93%

Question: And the Activity (MCF7 [17])?
Answer: Dose-dependent effect

Question: What about the Activity (MCF7 [18]) of the same compound?
Answer: 32.56%

Question: What does the source list for `COc1cc2c(cc1OC)C(c1ccccc1OC)Oc1ccccc1-2` (stereo unspecified)?
Answer: IC50 (PC-3): 9.32 µM; IC50 (MCF-10A): 48.9 µM; IC50 (MDA-MB-231): 8.4 µM; IC50 (MCF7 [1]): 6.32 µM; Activity (MCF7 [2]): Active; IC50 (A549): 13.2 µM; Activity (MCF7 [3]): Active; Activity (MCF7 [4]): Tde; Activity (MCF7 [5]): Active; IC50 (BGC-823): 9.1 µM; Activity (MCF7 [6]): Active; Activity (MCF7 [7]): Active; Activity (MCF7 [8]): Active; Activity (MCF7 [9]): 11.91%; Activity (MCF7 [10]): Active; inhibition (MCF7 [11]): Active; Activity (MCF7 [12]): 12.98%; inhibition [13]: Active; Ratio IC50 [14]: 7.73; Activity (MCF7 [15]): 18.87%; Activity (MCF7 [16]): 34.38%; Activity (MCF7 [17]): Dose-dependent effect; Activity (MCF7 [18]): 31.22%
